Entries after “also recorded” stand apart in the source; their conditions may differ. Where a SMILES comes first, the peptide text is derived from it. Bridges are numbered along the chain shown (N, C = ends).
Key:
Escherichia coli ML35 = experiment: Bactericidal assay (LD99.9), E. coli; type: cell-based; conditions: 10 mM phosphate buffer pH 7.0 with 1% TSB, 2 h, 37°C
Protocol: (§1) The peptides were tested for microbicidal activities against Bacillus subtilis ATCC6633, Escherichia coli ML35, and Staphylococcus aureus 42D as previously described. Suspensions of logarithmically growing test bacteria were incubated on a microtiter plate at a concentration of 10^5 colony-forming units/mL with various peptide dilutions. The medium was 100 µL of 10 mM phosphate buffer pH 7.0 supplemented with 1% (v/v) of tryptic soy broth (TSB). For later assays, human male serum was also added to a final concentration of 25%. 10 µL aliquots were collected at time 0 h and after 2 h of incubation on a rotary shaker (300 rpm) at 37°C. These were plated on blood agar plates and incubated overnight at 37°C. The Lethal Dose concentration (LD99.9) was determined, corresponding to the concentration killing >99.9% of the inoculum at 2 h. These experiments were performed in duplicate.
(§2) For the testing of the peptides' activities in different conditions, e.g. with serum, we use the same cut-off for activity as defined for Minimum Bactericidal Concentration (MBC), i.e. a 1000-fold reduction of the inoculum. However, we designate this peptide concentration with the more general term LD99.9 which can be applied to the specified conditions of the experiments performed here.

[1] = test system: Staphylococcus aureus 42D; experiment: Bactericidal assay (LD99.9), S. aureus; type: cell-based; conditions: 10 mM phosphate buffer pH 7.0 with 1% TSB, 2 h, 37°C
Protocol: as §1, §2

in vitro = conditions: male, human, 25% human male serum
Protocol: To investigate the effects of the modifications on proteolytic susceptibility, the disappearance of the intact peptides incubated in diluted human serum at 37°C was followed by RP-HPLC. […] Incubations were normally done for 9 h and, in some cases, longer.
Peptide stabilities were assayed in diluted serum as previously described. 25% human male serum was centrifuged at 13,000 rpm for 10 min to remove lipids and the supernatant was collected and incubated at 37°C for at least 15 min. The assay was initiated upon the addition of the test peptide to the serum for a final peptide concentration of 5 µM. 200 µL aliquots of the incubations were taken for the following time points: 0, 30, 75, 120, 240, 390 and 540 min. The aliquots were mixed with 40 µL of 15% trichloroacetic acid (TCA) and incubated at 4°C for at least 15 min to precipitate serum proteins. In the case of Com5 and Com6, 5 µL of 1 M NaOH was supplemented to the TCA to prevent peptide precipitation. The supernatant was collected for each sample after centrifugation at 13,000 rpm for 10 min and stored at −20°C. These assays were performed in triplicate.
Reverse phase high performance liquid chromatography (RP-HPLC) analysis was performed with an AKTA Purifier from Amersham Biosciences (Westborough, MA) using an uRPC C2/C18 ST 4.6/100 column from Pharmacia Biotech (SanJose, CA) of the following dimensions: bed length 100 mm, i.d. 4.6 mm, 120Å. Individually thawed samples were injected through a 100 µL loop, after which a linear gradient was run from 100% solution A (0.05% trifluoroacetic acid (TFA) in filtered water) to 100% solution B (0.045% TFA in 90% acetonitrile) with a flow rate at 0.5 mL/min. The relative concentrations of the remaining soluble peptides were analyzed by the integration of the absorbance at 215 nm as a function of retention time using the Analysis module of the Unicorn software package.

[2] = test system: Bacillus subtilis ATCC6633; experiment: Bactericidal assay (LD99.9), B. subtilis; type: cell-based; conditions: 10 mM phosphate buffer pH 7.0 with 1% TSB, 2 h, 37°C
Protocol: as §1, §2

[3] = design: method as in PMID 15853943; conditions: ITC; cited from earlier work
[4] = test system: Staphylococcus aureus 42D; experiment: Bactericidal assay (LD99.9), S. aureus in 25% human serum; type: cell-based; conditions: unit not given (Table 3 uses µM)
Protocol: In order to be able to make a direct comparison with our serum stability measurements, a few peptides were selected to be tested for antimicrobial activity in 25% human serum (Table 4). […] All LD99.9 values are higher compared to the initial assays in 10 mM sodium phosphate buffer. Contributing factors to this general loss in activity could be the increased ionic concentration, interactions with serum components such as albumin or other proteins, and peptide degradation. Both hexamers with unprotected termini, Lfc1 and Com1, are no longer active while the cyclized short peptides remained fairly antimicrobial. In human serum, Lfc5 and Lfc6 are equally anti-staphylococcal. This reflects a greater loss of activity for Lfc6, but also coincides with the lower serum stability that this peptide has compared to Lfc5 (Fig. 2C). The activities of the cyclized Com peptides were all lowered equally with a 16-fold increase in LD99.9 values compared to activities in serum-excluded media and this agrees with their similar stability profiles (Fig. 2D).
as §1, §2

[5] = biological target: bovine serum albumin (BSA) (Bos taurus, UniProt P02769); experiment: biochemical
bovine serum albumin (BSA), sequence (P02769 25-607): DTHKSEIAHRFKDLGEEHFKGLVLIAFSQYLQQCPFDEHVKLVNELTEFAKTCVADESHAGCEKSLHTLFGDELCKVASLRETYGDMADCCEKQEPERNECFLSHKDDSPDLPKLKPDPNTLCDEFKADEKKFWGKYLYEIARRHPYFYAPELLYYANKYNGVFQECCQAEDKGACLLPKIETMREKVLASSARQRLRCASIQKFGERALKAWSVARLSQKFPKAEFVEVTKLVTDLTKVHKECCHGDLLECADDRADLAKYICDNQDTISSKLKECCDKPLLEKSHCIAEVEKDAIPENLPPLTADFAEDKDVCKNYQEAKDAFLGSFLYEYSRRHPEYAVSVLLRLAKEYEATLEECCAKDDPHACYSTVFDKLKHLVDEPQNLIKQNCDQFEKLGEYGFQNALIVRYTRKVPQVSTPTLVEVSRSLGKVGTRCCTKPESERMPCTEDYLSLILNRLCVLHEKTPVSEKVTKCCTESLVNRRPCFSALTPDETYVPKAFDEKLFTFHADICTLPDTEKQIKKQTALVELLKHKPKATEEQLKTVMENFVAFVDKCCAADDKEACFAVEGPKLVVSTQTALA
Protocol: (§3) The potential for interactions between various peptides and bovine and human serum albumin (BSA and HSA) were studied by microcalorimetry.
(§4) ITC experiments were performed at 25°C on a Microcal VP-ITC microcalorimeter with data analysis performed with the Microcal Origin software. The sample cell contained 0.1 mM of either BSA or HSA dissolved in 20 mM HEPES, 100 mM NaCl, pH 7.9. The syringe was loaded with 2 mM test peptide in the same buffer, and each titration point resulted from 5 µL injections following an initial 2 µL injection. Separate control experiments were also performed to account for heats of dilution/mixing.

[6] = biological target: human serum albumin (HSA) (Homo sapiens, UniProt P02768); experiment: biochemical
human serum albumin (HSA), sequence (P02768 25-609): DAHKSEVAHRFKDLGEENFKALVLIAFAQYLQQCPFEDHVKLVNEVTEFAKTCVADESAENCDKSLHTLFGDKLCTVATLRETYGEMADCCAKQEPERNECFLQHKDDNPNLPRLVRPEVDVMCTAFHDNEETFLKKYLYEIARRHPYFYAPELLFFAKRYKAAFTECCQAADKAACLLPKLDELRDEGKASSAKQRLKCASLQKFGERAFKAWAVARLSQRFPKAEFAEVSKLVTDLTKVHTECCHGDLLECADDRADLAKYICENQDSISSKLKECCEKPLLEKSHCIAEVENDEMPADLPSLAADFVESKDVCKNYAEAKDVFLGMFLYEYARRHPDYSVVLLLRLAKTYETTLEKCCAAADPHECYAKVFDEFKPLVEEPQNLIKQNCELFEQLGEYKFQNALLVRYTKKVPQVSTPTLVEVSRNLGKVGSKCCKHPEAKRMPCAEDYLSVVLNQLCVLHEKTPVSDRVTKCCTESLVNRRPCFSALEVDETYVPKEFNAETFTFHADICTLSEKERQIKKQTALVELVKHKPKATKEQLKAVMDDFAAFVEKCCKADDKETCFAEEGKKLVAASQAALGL
Protocol: as §3, §4

25% human male serum = conditions: 37°C, up to 540 min

Row | Compound | 99.9% Lethal Dose Concentration (LD99.9) E. coli (Escherichia coli ML35) [µM] | 99.9% Lethal Dose Concentration (LD99.9) S. aureus [1] [µM] | 99.9% Lethal Dose Concentration (LD99.9) B. subtilis [2] [µM] | fragment found (25% human male serum) | other results
1 | CC(=O)N[C@@H](CCCNC(=N)N)C(=O)N[C@@H](CCCNC(=N)N)C(=O)N[C@@H](Cc1c[nH]c2ccccc12)C(=O)N[C@@H](Cc1c[nH]c2ccccc12)C(=O)N[C@@H](CCCNC(=N)N)C(=O)N[C@@H](Cc1ccccc1)C(N)=O [Com4, CH3CO-RRWWRF-NH2] (Ac-RRWWRF-NH2) | 7.5 | 7.5 | 0.9 |  | half-life at 5 µM (in vitro): ~1.5 h; affinity for negatively charged membranes [3]: micromolar affinity
2 | CC(=O)N[C@H]1CSSC[C@@H](C(N)=O)NC(=O)[C@H](Cc2ccccc2)NC(=O)[C@H](CCCNC(=N)N)NC(=O)[C@H](Cc2c[nH]c3ccccc23)NC(=O)[C@H](Cc2c[nH]c3ccccc23)NC(=O)[C@H](CCCNC(=N)N)NC(=O)[C@H](CCCNC(=N)N)NC1=O [Com7, CH3CO-CRRWWRFC-NH2] (Ac-CRRWWRFC-NH2; disulfide 1-8) | 30 | 1.9 | ≤0.45 |  | LD99.9 anti-S. aureus in 25% human serum [4]: 30; remaining at 6.5 h, 5 µM (in vitro): ~50%; Kd [5]: 210 µM
3 | N=C(N)NCCC[C@@H]1NC(=O)[C@H](CCCNC(=N)N)NC(=O)[C@H](Cc2c[nH]c3ccccc23)NC(=O)[C@H](CCC(N)=O)NC(=O)[C@H](Cc2c[nH]c3ccccc23)NC(=O)[C@H](CCCNC(=N)N)NC1=O [Lfc5, -RRWQWR-] (cyclo(RRWQWR)) | 7.5 | 7.5 | 1.9 |  | LD99.9 anti-S. aureus in 25% human serum [4]: 60; remaining at 6.5 h, 5 µM (in vitro): > 70%; remaining at 24 h, 5 µM (in vitro): ~50%
4 | CSCC[C@@H]1NC(=O)[C@H](CCCNC(=N)N)NC(=O)[C@H](Cc2c[nH]c3ccccc23)NC(=O)[C@H](CCC(N)=O)NC(=O)[C@H](Cc2c[nH]c3ccccc23)NC(=O)[C@H](CCCNC(=N)N)NC(=O)[C@H](CCCNC(=N)N)NC(=O)CNC(=O)[C@H](CC(C)C)NC(=O)[C@H](CCCCN)NC(=O)[C@H](CCCCN)NC1=O [Lfc8, -RRWQWRMKKLG-] (cyclo(RRWQWRMKKLG)) | 3.8 | 15 | ≤0.45 |  | Kd [6]: 150 µM
5 | -RRWQWR- (cyclo(RRWQWR); SMILES N=C(N)NCCC[C@@H]1NC(=O)[C@H](CCCNC(=N)N)NC(=O)[C@H](Cc2c[nH]c3ccccc23)NC(=O)[C@H](CCC(N)=O)NC(=O)[C@H](Cc2c[nH]c3ccccc23)NC(=O)[C@H](CCCNC(=N)N)NC1=O) |  |  |  | Single Cut, 75 min | 
6 | -RRWQWRMKKLG- (cyclo(RRWQWRMKKLG); SMILES CSCC[C@@H]1NC(=O)[C@H](CCCNC(=N)N)NC(=O)[C@H](Cc2c[nH]c3ccccc23)NC(=O)[C@H](CCC(N)=O)NC(=O)[C@H](Cc2c[nH]c3ccccc23)NC(=O)[C@H](CCCNC(=N)N)NC(=O)[C@H](CCCNC(=N)N)NC(=O)CNC(=O)[C@H](CC(C)C)NC(=O)[C@H](CCCCN)NC(=O)[C@H](CCCCN)NC1=O) |  |  |  | Single Cut, 75 min | 
7 | Ac-RRWQWR-NH2 |  |  |  | CH3CO-RRWQ, 75 min; also recorded: CH3CO-RRW, 75 min | 
8 | Ac-RRWQWR-OH |  |  |  | CH3CO-RRWQ, 75 min; also recorded: CH3CO-RRW, 75 min | 
9 | Ac-RRWWRF-NH2 |  |  |  | CH3CO-RRWW, 75 min; also recorded: CH3CO-RRW, 75 min | 
10 | RRWQWRMKKLG |  |  |  | RWQWRM, 75 min; also recorded: WQWRM, 75 min | 

From paper PMC2937036 (PLoS ONE, 2010)
